The numbers were not newly measured in patent US7074430B2, “Controlled release tramadol tramadol formulation” (Euro-Celtique S.A., priority 1994, dated 2006), which cites them from elsewhere.

For this series the following is noted: value taken for the deconvolution technique.

Turning to `COc1cccc([C@@]2(O)CCCC[C@H]2CN(C)C)c1` (racemic) [tramadol, (±)-trans-2-[(dimethylamino)methyl]-1-(3-methoxyphenyl) cyclohexanol], the elimination half life was 7.8 h.
